These results are taken from ChEMBL document CHEMBL3734665, “Design, synthesis and evaluation of antiestrogen and histone deacetylase inhibitor molecular hybrids” (Bioorg Med Chem, 2015).

For assay [1], the target named is T1, Estrogen receptor (Homo sapiens, UniProt P03372).
T1 sequence (P03372 whole entry): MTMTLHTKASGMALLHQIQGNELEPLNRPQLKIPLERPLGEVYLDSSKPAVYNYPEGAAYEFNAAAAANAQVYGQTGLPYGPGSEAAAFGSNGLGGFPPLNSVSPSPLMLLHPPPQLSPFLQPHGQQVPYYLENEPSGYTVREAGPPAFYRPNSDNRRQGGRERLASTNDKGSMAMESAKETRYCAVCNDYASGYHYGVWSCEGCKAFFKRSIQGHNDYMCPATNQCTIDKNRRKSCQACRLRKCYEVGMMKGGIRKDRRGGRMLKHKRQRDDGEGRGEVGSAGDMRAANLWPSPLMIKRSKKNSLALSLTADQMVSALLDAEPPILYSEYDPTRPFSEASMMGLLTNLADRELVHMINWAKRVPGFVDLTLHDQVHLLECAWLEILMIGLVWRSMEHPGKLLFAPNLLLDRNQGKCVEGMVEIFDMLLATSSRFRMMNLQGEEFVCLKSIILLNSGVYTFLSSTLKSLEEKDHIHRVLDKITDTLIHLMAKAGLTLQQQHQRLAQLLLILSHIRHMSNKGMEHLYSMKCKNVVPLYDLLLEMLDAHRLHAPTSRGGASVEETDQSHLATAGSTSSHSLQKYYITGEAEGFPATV
Kind of assay: (§1) Antagonist activity at luciferase-fused ERalpha in human HEK293 cells expressing eYFP assessed as reduction of E2-induced estrogenic activity after 2 hrs by BRET assay. The assay is classed as cell-based. A general note: BRET reads energy transfer from a luciferase to a nearby fluorophore.

Assay [2] addresses T2, Estrogen receptor (Homo sapiens) (UniProt P03372).
T2 sequence (whole entry): T1 sequence (P03372 whole entry)
Described as §1. It is filed as cell-based.

In assay [3] the target is T3, Protein deacetylase HDAC6 (Homo sapiens, UniProt Q9UBN7).
T3 sequence (Q9UBN7 whole entry): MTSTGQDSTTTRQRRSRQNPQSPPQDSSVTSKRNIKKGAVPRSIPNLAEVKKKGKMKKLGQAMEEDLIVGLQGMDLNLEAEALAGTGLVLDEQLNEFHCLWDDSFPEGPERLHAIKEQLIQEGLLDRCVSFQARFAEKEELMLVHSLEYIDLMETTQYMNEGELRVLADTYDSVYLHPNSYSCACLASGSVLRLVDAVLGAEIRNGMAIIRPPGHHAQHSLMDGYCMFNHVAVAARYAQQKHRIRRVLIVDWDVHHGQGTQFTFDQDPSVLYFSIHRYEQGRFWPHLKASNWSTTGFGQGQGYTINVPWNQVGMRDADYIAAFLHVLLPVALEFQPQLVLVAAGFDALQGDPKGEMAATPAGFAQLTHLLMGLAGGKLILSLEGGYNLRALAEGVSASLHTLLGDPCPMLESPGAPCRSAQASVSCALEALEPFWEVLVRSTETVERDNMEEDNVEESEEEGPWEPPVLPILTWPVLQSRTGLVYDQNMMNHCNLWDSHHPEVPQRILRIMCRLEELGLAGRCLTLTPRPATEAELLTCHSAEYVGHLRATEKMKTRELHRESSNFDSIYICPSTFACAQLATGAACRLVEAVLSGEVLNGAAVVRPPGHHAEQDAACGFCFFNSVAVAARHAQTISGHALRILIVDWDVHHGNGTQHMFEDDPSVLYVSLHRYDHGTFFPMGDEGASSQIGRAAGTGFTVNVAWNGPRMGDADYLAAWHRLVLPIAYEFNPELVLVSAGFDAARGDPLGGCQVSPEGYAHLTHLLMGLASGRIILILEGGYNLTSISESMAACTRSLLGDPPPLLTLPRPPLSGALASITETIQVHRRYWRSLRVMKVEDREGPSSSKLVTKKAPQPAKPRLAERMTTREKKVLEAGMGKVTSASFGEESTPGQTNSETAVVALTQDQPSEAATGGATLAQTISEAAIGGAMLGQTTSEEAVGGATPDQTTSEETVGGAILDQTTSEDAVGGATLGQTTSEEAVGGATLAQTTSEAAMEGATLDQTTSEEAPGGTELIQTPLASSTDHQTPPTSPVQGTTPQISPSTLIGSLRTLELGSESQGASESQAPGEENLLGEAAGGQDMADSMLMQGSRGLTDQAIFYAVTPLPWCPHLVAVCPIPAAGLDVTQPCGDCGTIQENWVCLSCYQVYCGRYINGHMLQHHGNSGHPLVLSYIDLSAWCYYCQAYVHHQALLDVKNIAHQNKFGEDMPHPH
Kind of assay: Inhibition of human recombinant HDAC6 using Boc-Lys(Ac)-AMC as substrate after 30 mins by fluorescence assay.

Assay [4] deals with Histone deacetylase 3 (Homo sapiens, UniProt O15379). The assay can be described thus: Inhibition of human recombinant HDAC3 using Boc-Lys(Ac)-AMC as substrate after 30 mins by fluorescence assay.
Sequence of Histone deacetylase 3 (O15379 whole entry): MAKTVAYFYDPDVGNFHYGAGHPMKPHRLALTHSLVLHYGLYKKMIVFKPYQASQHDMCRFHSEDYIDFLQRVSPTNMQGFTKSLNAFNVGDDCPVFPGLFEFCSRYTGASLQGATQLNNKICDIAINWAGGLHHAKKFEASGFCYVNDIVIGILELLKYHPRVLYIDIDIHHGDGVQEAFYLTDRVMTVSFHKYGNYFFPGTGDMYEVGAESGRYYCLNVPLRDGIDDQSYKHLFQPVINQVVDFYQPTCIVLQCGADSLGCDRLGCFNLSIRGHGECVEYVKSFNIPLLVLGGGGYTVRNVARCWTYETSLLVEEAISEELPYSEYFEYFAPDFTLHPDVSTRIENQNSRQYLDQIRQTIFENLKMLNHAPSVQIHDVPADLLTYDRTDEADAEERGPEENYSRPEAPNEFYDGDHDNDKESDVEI
Assay [5] has as its target T1, Estrogen receptor. The assay can be described thus: Antagonist activity at ERalpha in human T47D-KBLuc cells assessed as inhibition of E2-induced transcriptional activity by luciferase reporter gene assay. The assay is classed as cell-based.
In assay [6] the test system is MCF7. Kind of assay: Antiproliferative activity against human MCF7 cells treated for 48 hrs followed by refreshed every 96 hrs measured on day 10 by Lowry assay. The assay is classed as functional, cell-based.
The subject of assay [7] is MDA-MB-231. The assay can be described thus: Antiproliferative activity against human MDA-MB-231 cells treated for 48 hrs followed by refreshed every 96 hrs measured on day 10 by Lowry assay. It is filed as functional, cell-based.

Bounds are passed on as bounds.

Consider `C[C@]12CC[C@@H]3c4ccc(O)cc4C[C@@H](CCCCCCCCCCC(=O)NO)[C@H]3[C@@H]1CC[C@@H]2O`, for which the IC50 (in general, the concentration that inhibits the measured activity by half) in assay [1] was 0.51 µM; in assay [3], 1.15 µM; in assay [4], 0.96 µM; in assay [5] it was 1.06 µM; in assay [6], 2.93 µM. In assay [2], the inhibition result is “Dose-dependent effect”.

`CC/C(=C(\c1ccc(O)cc1)c1ccc(OCCN(C)C)cc1)c1ccccc1` [AFIMOXIFENE]: inhibition in assay [6] was half-maximal at 0.15 µM (IC50).

Take `CCCCN(C)C(=O)CCCCCCCCCC[C@@H]1Cc2cc(O)ccc2[C@H]2CC[C@]3(C)[C@@H](O)CC[C@H]3[C@H]12`: in assay [6], the IC50 is 0.93 µM.

`C[C@]12CC[C@@H]3c4ccc(O)cc4C[C@@H](CCCCCCCCCCC(=O)Nc4ccccc4N)[C@H]3[C@@H]1CC[C@@H]2O`: the IC50 in assay [1] is 0.21 µM; in assay [3], more than 50 µM; in assay [4], 3.18 µM; in assay [5], 0.72 µM; in assay [6], 1.9 µM. Also, the inhibition entry in assay [2] is “Dose-dependent effect”.

Regarding `CCCCN(O)C(=O)c1cccc(NC(=O)CCCCCS[C@@H]2Cc3cc(O)ccc3[C@H]3CC[C@]4(C)[C@@H](O)CC[C@H]4[C@@H]32)c1`, the half-inhibitory concentration (IC50) in assay [7] came out at 5.02 µM; in assay [1], 0.05 µM; in assay [3], 43.7 µM; in assay [4] it was 1.55 µM; in assay [5] it was 0.18 µM; in assay [6], 0.34 µM. Moreover, in assay [2], the inhibition entry is “Dose-dependent effect”.

For `Nc1ccccc1NC(=O)c1ccc(CNC(=O)OCc2cccnc2)cc1` [ENTINOSTAT], the IC50 in assay [6] was found to be 0.35 µM.

Consider `CCCCN(O)C(=O)CCCCCCCCCC[C@@H]1Cc2cc(O)ccc2[C@H]2CC[C@]3(C)[C@@H](O)CC[C@H]3[C@H]12`, for which the IC50 in assay [1] was 2.55 µM; in assay [3], more than 50 µM; in assay [4] it was more than 5 µM; in assay [5], 2.1 µM; in assay [6], 9.11 µM. Besides, the inhibition entry in assay [2] is “Dose-dependent effect”.
